Data published in ChEMBL document CHEMBL6134890, “Terminally Symmetric β-Turn Peptides for Multidrug-Resistant Bacterial Infections” (J Med Chem, 2025).
In brackets after ≈: the same amount, converted by molar mass. Activity calls are given as the source filed them. The calls are words filed in the database; no cut-off is given here. Peptide text beside a SMILES is read from it.

Columns and labels:
[1] = system: Escherichia coli; assay: Antibacterial activity against multidrug resistant Escherichia coli infected in male Kunming mouse model assessed as reduction in wound size measured after 3 to 5 days by caliper method; format: functional, organism-based; settings: time 3-5 day
[2] = system: Escherichia coli; assay: Antimicrobial activity against multi-drug resistant Escherichia coli assessed as reduction in bacterial growth in presence of NaCl; format: functional, organism-based
[3] = system: Cell membrane; assay: Disruption of cell membrane in multi-drug resistant Staphylococcus aureus assessed as appearance of ruptured cell membrane at 2 times MIC measured for 120 mins by transmission electron microscopy analysis; format: subcellular
[4] = system: Escherichia coli; assay: Antibacterial activity against multidrug resistant Escherichia coli infected in male Kunming mouse model assessed as reduction in tissue hemorrhage by H and E staining based analysis; format: functional, organism-based
[5] = system: Staphylococcus aureus; assay: Antimicrobial activity against multi-drug resistant Staphylococcus aureus assessed as reduction in bacterial growth in presence of NaCl; format: functional, organism-based
[6] = system: Staphylococcus aureus; assay: Antimicrobial activity against multi-drug resistant Staphylococcus aureus assessed as reduction in bacterial growth in presence of FeCl3; format: functional, organism-based
[7] = system: Escherichia coli; assay: Antibacterial activity against multidrug resistant Escherichia coli infected in male Kunming mouse model assessed as wound healing measured after 11 days in presence of levofloxacin by caliper method relative to control; format: functional; settings: time 11 day
[8] = system: Escherichia coli; assay: Antimicrobial activity against multi-drug resistant Escherichia coli assessed as reduction in bacterial growth measured after 6 hrs in 25% plasma; format: functional, organism-based
[9] = system: Klebsiella pneumoniae; assay: Antimicrobial activity against multi-drug resistant Klebsiella pneumoniae assessed as reduction in bacterial growth by broth dilution method; format: functional
[10] = system: L02; assay: Cytotoxicity against human LO2 cells at 2 to 256 uM measured after 24 hrs by CCK-8 method; format: toxicity, cell-based; settings: l02, 24 h, dose 2-256 µM
[11] = system: Staphylococcus aureus; assay: Antimicrobial activity against multi-drug resistant Staphylococcus aureus assessed as reduction in bacterial growth at 2 times MIC measured after 1 hrs in presence of chymotrypsin by microplate reader based analysis; format: functional, organism-based
[12] = system: Staphylococcus aureus; assay: Bactericidal activity against multi-drug resistant Staphylococcus aureus assessed as eradication of bacterial growth at 2 times MIC by time-kill kinetic assay; format: functional, organism-based; settings: time 120-720 min
[13] = system: Staphylococcus aureus; assay: Antimicrobial activity against Staphylococcus aureus ATCC 25923 assessed as reduction in bacterial growth by broth dilution method; format: functional
[14] = system: BEAS-2B; assay: Cytotoxicity against human BEAS-2B cells at 2 to 256 uM measured after 24 hrs by CCK-8 method; format: toxicity, cell-based; settings: dose 2-256 µM
[15] = system: Staphylococcus aureus; assay: Antibacterial activity against Staphylococcus aureus ATCC 25923 at sub-inhibitory concentration measured after 15 passages for 18 hrs; format: functional
[16] = system: Escherichia coli; assay: Antibacterial activity against Escherichia coli ATCC 25922 infected in male Kunming mouse model assessed as reduction in bacterial load measured after 11 days; format: functional, organism-based; settings: time 11.0 day
[17] = system: Acinetobacter baumannii; assay: Antimicrobial activity against multi-drug resistant Acinetobacter baumannii assessed as reduction in bacterial growth by broth dilution method; format: functional
[18] = system: Escherichia coli; assay: Antimicrobial activity against multi-drug resistant Escherichia coli assessed as reduction in bacterial growth at 2 times MIC measured after 1 hrs in presence of trypsin by microplate reader based analysis; format: functional, organism-based
[19] = system: Escherichia coli; assay: Antibacterial activity against multidrug resistant Escherichia coli infected in male Kunming mouse model assessed as reduction in tissue hemorrhage in presence of levofloxacin by H and E staining based analysis; format: functional, organism-based
[20] = system: Escherichia coli; assay: Antibacterial activity against multidrug resistant Escherichia coli infected in male Kunming mouse model assessed as reduction in epidermal thickening in presence of levofloxacin by H and E staining based analysis; format: functional, organism-based
[21] = system: Escherichia coli; assay: Antimicrobial activity against multi-drug resistant Escherichia coli assessed as reduction in bacterial growth at 2 times MIC measured after 1 hrs in presence of chymotrypsin by microplate reader based analysis; format: functional, organism-based
[22] = system: HEK-293T; assay: Cytotoxicity against HEK293T cells at 2 to 256 uM measured after 24 hrs by CCK-8 method; format: toxicity, cell-based; settings: human, dose 2-256 µM
[23] = system: Cell membrane; assay: Disruption of cell membrane in multi-drug resistant Escherichia coli assessed as appearance of ruptured cell membrane at 2 times MIC measured for 120 mins by transmission electron microscopy analysis; format: subcellular
[24] = system: Escherichia coli; assay: Antibacterial activity against multidrug resistant Escherichia coli infected in male Kunming mouse model assessed as reduction in IL-6 expression by immunochemical analysis; format: functional, organism-based
[25] = system: Staphylococcus aureus; assay: Antimicrobial activity against multi-drug resistant Staphylococcus aureus assessed as reduction in bacterial growth at 2 times MIC measured after 1 hrs in presence of trypsin by microplate reader based analysis; format: functional, organism-based
[26] = system: Escherichia coli; assay: Antimicrobial activity against multi-drug resistant Escherichia coli assessed as reduction in bacterial growth in presence of FeCl3; format: functional, organism-based
[27] = system: Escherichia coli; assay: Antibacterial activity against multidrug resistant Escherichia coli infected in male Kunming mouse model assessed as reduction in wound size measured after 3 to 5 days in presence of levofloxacin by caliper method; format: functional, organism-based; settings: time 3-5 day
[28] = system: Escherichia coli; assay: Bactericidal activity against multi-drug resistant Escherichia coli at 1 times MIC preincubated with LPS for 1 hrs followed by bacterial addition and measured after 18 hrs by microplate reader based analysis; format: functional, organism-based; settings: time 19.0 hrs
[29] = system: Escherichia coli; assay: Antibacterial activity against multidrug resistant Escherichia coli infected in male Kunming mouse model assessed as wound healing measured after 11 days by caliper method relative to control; format: functional; settings: time 11 day

CC[C@H](C)[C@H](NC(=O)[C@H](CCCCN)NC(=O)[C@@H](NC(=O)[C@H](CCCCN)NC(=O)[C@@H]1CCCN1C(=O)[C@H](Cc1c[nH]c2ccccc12)NC(=O)[C@H](Cc1c[nH]c2ccccc12)NC(=O)[C@H](Cc1c[nH]c2ccccc12)NC(=O)[C@@H]1CCCN1C(=O)[C@H](CCCCN)NC(=O)[C@@H](NC(=O)[C@H](CCCCN)NC(=O)[C@@H](NC(=O)[C@@H](N)CCCCN)[C@@H](C)CC)[C@@H](C)CC)[C@@H](C)CC)C(=O)N[C@@H](CCCCN)C(N)=O (H-KIKIKPWWWPKIKIK-NH2)
Activity [1]: Active
Activity [2]: Active
Activity [3]: Active
Activity [4]: Active
Activity [5]: Active
Activity [6]: Active
Activity [7]: 100%
Activity [8]: Active
MIC [9]: 4 µM (≈ 7.97 µg/mL)
Activity [10]: Toxic
Activity [11]: inactive
Activity [12]: Time-dependent-effect
MIC [13]: 8 µM (≈ 15.9 µg/mL)
Activity [14]: Toxic
Activity [15]: Active
Activity [16]: Active
MIC [17]: 4 µM (≈ 7.97 µg/mL)
Activity [18]: inactive
Activity [19]: Active
Activity [20]: inactive
Activity [21]: inactive
Activity [22]: Toxic
Activity [23]: Active
Activity [24]: Active
Activity [25]: inactive
Activity [26]: Active
Activity [27]: Active
Activity [28]: inactive
Activity [29]: 100%
